One assay concerns C. krusei. The experiment in a line: Antifungal Activity Assay (broth microtiter MIC), C. krusei. The note with it: Pichia kudriavzevii, ATCC6258, 48 h. The format is cell-based, Candida krusei. The procedure, abridged:
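MIC read by eye at 48 h, comparing challenged wells with the growth control. Yeasts grown overnight on Sabouraud dextrose agar at 35° C, suspended in RPMI 1640+MOPS and added at 2.5×10^3 CFU/mL final, following CLSI M27-A3.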

The subject of assay [1] is Fusarium virguliforme (Fv). Nature of the assay: Growth inhibition assay of fungal pathogens, Fv. The format is cell-based. The note with it: 48 h. The procedure, abridged:
(§1)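 Pathogen growth in 17% V8 broth is measured by OD600 at 24 and 48 hours, after blank subtraction, in the presence of compound at 50, 10 and 2 ppm or 2, 0.4 and 0.08 ppm. Inhibition in percent comes from 48-hour readings against the DMSO control.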

Assay [2] deals with Fusarium moniliforme (Fm). The experiment in a line: Growth inhibition assay of fungal pathogens, Fm. Type of assay: cell-based. The note with it: for IC90: Fusarium verticillioides, 48 h, read-out: Concentration at 90% Inhibition Fm. The procedure, abridged: as §1
Setting [3] is: read-out: MIC, C. krusei ATCC 6258, Table 3a, 3 replicates, MIC recorded at 48 h.
[4] abbreviates: read-out: MIC, C. krusei ATCC 6258, Table 3b (additional results), 3 replicates, MIC recorded at 48 h.
Setting [5] is: read-out: Concentration at 90% Inhibition Fv, Fusarium virguliforme, growth inhibition at 48 hours vs 2% DMSO control.
Setting [6] is: read-out: Concentration at 90% Inhibition Fv, Fusarium virguliforme, growth inhibition vs 2% DMSO control at 48 hours.
Where [7] appears, read: Fusarium moniliforme, growth inhibition at 48 hours vs 2% DMSO control.
The mark [8] stands for this setting: Table 3a, ATCC 6258, 3 replicates, MIC recorded at 48 h, read-out: MIC, C. krusei ATCC 6258.
The mark [9] stands for this setting: Table 3b (additional results), ATCC 6258, 3 replicates, MIC recorded at 48 h, read-out: MIC, C. krusei ATCC 6258.
[10] abbreviates: growth inhibition at 48 hours vs 2% DMSO control, read-out: Concentration at 90% Inhibition Fv.
The mark [11] stands for this setting: growth inhibition vs 2% DMSO control at 48 hours, read-out: Concentration at 90% Inhibition Fv.
The mark [12] stands for this setting: Fusarium moniliforme, growth inhibition vs 2% DMSO control at 48 hours.

≈ marks a conversion by molar mass, not a printed value. Read-outs that look alike come from different tables or passages of the source.

In general, MIC refers to the smallest concentration in the dilution series that meets the test's criterion for growth inhibition. As for `COc1ccc(F)cc1[C@H](Cn1c(=O)n(C(C)(C)C(=O)NC(C)C)c(=O)c2c(C)c(-n3nccn3)sc21)OCCO` [Compound I-43, (R)-2-(1-(2-(5-fluoro-2-methoxyphenyl)-2-(2-hydroxyethoxy)ethyl)-5-methyl-2,4-dioxo-6-(2H-1,2,3-triazol-2-yl)-1,4-dihydrothieno[2,3-d]pyrimidin-3(2H)-yl)-N-isopropyl-2-methylpropanamide], the MIC in the assay with C. krusei (setting [3]) and in the assay with C. krusei (setting [4]) was 0.25 to 1 µg/mL (≈ 0.425 to 1.7 µM) throughout. For the same compound, the IC90 came out at 0.4 µg/mL (≈ 0.68 µM) in assay [1] (setting [5]), 0.4 µg/mL (≈ 0.68 µM) in assay [1] (setting [6]) and 0.08 µg/mL (≈ 0.136 µM) in assay [2]. Further, in assay [2] (setting [7]), the “Concentration at 90% Inhibition Fm” value is recorded as “AA (compound concentration of 0.08 ppm at 90% inhibition of fungal pathogens)”.
With `COc1ccc(F)cc1[C@H](Cn1c(=O)n(C(C)(C)C(=O)N2CCCC2)c(=O)c2c(C)c(-n3nccn3)sc21)OCCO` [Compound I-44, (R)-1-(2-(5-fluoro-2-methoxyphenyl)-2-(2-hydroxyethoxy)ethyl)-5-methyl-3-(2-methyl-1-oxo-1-(pyrrolidin-1-yl)propan-2-yl)-6-(2H-1,2,3-triazol-2-yl)thieno[2,3-d]pyrimidine-2,4(1H,3H)-dione], the values for the MIC with C. krusei (setting [8]) and in the assay on C. krusei (setting [9]) were 1.1 to 2 µg/mL (≈ 1.83 to 3.33 µM) and 1.01 to 2 µg/mL (≈ 1.68 to 3.33 µM), respectively. Also, the IC90 in assay [1] (setting [10]), in assay [1] (setting [11]), in assay [2] (setting [7]) and in assay [2] (setting [12]) was 0.4 µg/mL (≈ 0.666 µM) throughout.
As to `COc1ccc(F)cc1[C@H](Cn1c(=O)n(C(C)(C)C(=O)NC(C)C)c(=O)c2c(C)c(-n3nccn3)sc21)OC[C@@H](C)O` [Compound I-45, 2-(1-((R)-2-(5-fluoro-2-methoxyphenyl)-2-((R)-2-hydroxypropoxy)ethyl)-5-methyl-2,4-dioxo-6-(2H-1,2,3-triazol-2-yl)-1,4-dihydro-thieno[2,3-d]pyrimidin-3(2H)-yl)-N-isopropyl-2-methylpropanamide], the MIC with C. krusei (setting [3]) was in the range of 0.25 to 1 µg/mL (≈ 0.415 to 1.66 µM); in the assay with C. krusei (setting [4]) it was 1.01 to 2 µg/mL (≈ 1.68 to 3.32 µM). Moreover, the IC90 in assay [1] (setting [5]) stood at 0.4 µg/mL (≈ 0.664 µM); in assay [1] (setting [6]) it was 0.4 µg/mL (≈ 0.664 µM); in assay [2], 0.08 µg/mL (≈ 0.133 µM). In addition, the “Concentration at 90% Inhibition Fm” value in assay [2] (setting [7]) was “AA (compound concentration of 0.08 ppm at 90% inhibition of fungal pathogens)”.
For the compound `COc1ccc(F)cc1[C@H](Cn1c(=O)n(C(C)(C)C(=O)N2CCCC2)c(=O)c2c(C)c(-n3nccn3)sc21)OC[C@@H](C)O` [Compound I-46, 1-((R)-2-(5-fluoro-2-methoxyphenyl)-2-((R)-2-hydroxypropoxy)ethyl)-5-methyl-3-(2-methyl-1-oxo-1-(pyrrolidin-1-yl)propan-2-yl)-6-(2H-1,2,3-triazol-2-yl)thieno[2,3-d]pyrimidine-2,4(1H,3H)-dione], the MIC in the assay on C. krusei (setting [8]) lay within 0.25 to 1 µg/mL (≈ 0.407 to 1.63 µM); in the assay with C. krusei (setting [9]) it was 2.01 to 4 µg/mL (≈ 3.27 to 6.51 µM). For the same compound, the IC90 in assay [1] (setting [10]) stood at 2 µg/mL (≈ 3.25 µM); in assay [1] (setting [11]) it was 2 µg/mL (≈ 3.25 µM); in assay [2] (setting [7]), 0.08 µg/mL (≈ 0.13 µM); in assay [2] (setting [12]), 0.08 µg/mL (≈ 0.13 µM).
As to `COc1ccc(F)cc1[C@H](Cn1c(=O)n(C(C)(C)C(=O)NC(C)C)c(=O)c2c(C)c(-n3nccn3)sc21)OC[C@H](C)O` [Compound I-47, 2-(1-((R)-2-(5-fluoro-2-methoxyphenyl)-2-((S)-2-hydroxypropoxy)ethyl)-5-methyl-2,4-dioxo-6-(2H-1,2,3-triazol-2-yl)-1,4-dihydro-thieno[2,3-d]pyrimidin-3(2H)-yl)-N-isopropyl-2-methylpropanamide], the minimum inhibitory concentration (MIC) in the assay on C. krusei (setting [3]) was 0.06 to 0.24 µg/mL (≈ 0.0996 to 0.398 µM); in the assay on C. krusei (setting [4]), 1.01 to 2 µg/mL (≈ 1.68 to 3.32 µM). The IC90 in assay [1] (setting [5]) was 0.4 µg/mL (≈ 0.664 µM); in assay [1] (setting [6]) it was 0.4 µg/mL (≈ 0.664 µM); in assay [2] it was 0.08 µg/mL (≈ 0.133 µM). Also, the “Concentration at 90% Inhibition Fm” value in assay [2] (setting [7]) is reported as “AA (compound concentration of 0.08 ppm at 90% inhibition of fungal pathogens)”.
With `COc1ccc(F)cc1[C@H](Cn1c(=O)n(C(C)(C)C(=O)N2CCCC2)c(=O)c2c(C)c(-n3nccn3)sc21)OC[C@H](C)O` [Compound I-48, 1-((R)-2-(5-fluoro-2-methoxyphenyl)-2-((S)-2-hydroxy-propoxy)ethyl)-5-methyl-3-(2-methyl-1-oxo-1-(pyrrolidin-1-yl)propan-2-yl)-6-(2H-1,2,3-triazol-2-yl)thieno[2,3-d]pyrimidine-2,4(1H,3H)-dione], the MIC in the assay on C. krusei (setting [8]) was in the range of 1.1 to 2 µg/mL (≈ 1.79 to 3.25 µM); in the assay on C. krusei (setting [9]), 2.01 to 4 µg/mL (≈ 3.27 to 6.51 µM). Further, the IC90 in assay [1] (setting [10]), in assay [1] (setting [11]), in assay [2] (setting [7]) and in assay [2] (setting [12]) was 0.4 µg/mL (≈ 0.651 µM) each time.
Consider `COc1ccc(F)cc1[C@H](Cn1c(=O)n(C(C)(C)C(=O)N(C)C)c(=O)c2c(C)c(-n3nccn3)sc21)OC(C)C` [Compound I-49, (R)-2-(1-(2-(5-fluoro-2-methoxyphenyl)-2-isopropoxy-ethyl)-5-methyl-2,4-dioxo-6-(2H-1,2,3-triazol-2-yl)-1,4-dihydrothieno[2,3-d]pyrimi-din-3(2H)-yl)-N,N,2-trimethylpropanamide], for which the figures for the MIC in the assay on C. krusei (setting [3]) and in the assay with C. krusei (setting [4]) were 2.1 to 4 µg/mL (≈ 3.67 to 6.98 µM) and 1.01 to 2 µg/mL (≈ 1.76 to 3.49 µM), respectively. Besides, the IC90 in assay [1] (setting [5]), in assay [1] (setting [6]) and in assay [2] was 0.4 µg/mL (≈ 0.698 µM) throughout. For the same compound, in assay [2] (setting [7]), the “Concentration at 90% Inhibition Fm” value is “A (compound concentration of 0.4 ppm at 90% inhibition of fungal pathogens)”.
For `CNC(=O)C(C)(C)n1c(=O)c2c(C)c(-n3nccn3)sc2n(C[C@H](OC(C)C)c2cc(F)ccc2OC)c1=O` [Compound I-50, (R)-2-(1-(2-(5-fluoro-2-methoxyphenyl)-2-isopropoxy-ethyl)-5-methyl-2,4-dioxo-6-(2H-1,2,3-triazol-2-yl)-1,4-dihydrothieno[2,3-d]pyrimidin-3(2H)-yl)-N,2-dimethylpropanamide], the MIC in the assay with C. krusei (setting [3]) was 1.1 to 2 µg/mL (≈ 1.97 to 3.58 µM); in the assay with C. krusei (setting [4]), 0.25 to 1 µg/mL (≈ 0.448 to 1.79 µM). Moreover, the IC90 in assay [1] (setting [5]), in assay [1] (setting [6]) and in assay [2] was 0.4 µg/mL (≈ 0.716 µM) throughout. In addition, the “Concentration at 90% Inhibition Fm” value in assay [2] (setting [7]) was “A (compound concentration of 0.4 ppm at 90% inhibition of fungal pathogens)”.
On to `COc1ccc(F)cc1[C@H](Cn1c(=O)n(C(C)(C)C(=O)N2CC=CC2)c(=O)c2c(C)c(-n3nccn3)sc21)OC(C)C` [Compound I-51, (R)-3-(1-(2,5-dihydro-1H-pyrrol-1-yl)-2-methyl-1-oxopropan-2-yl)-1-(2-(5-fluoro-2-methoxyphenyl)-2-isopropoxyethyl)-5-methyl-6-(2H-1,2,3-triazol-2-yl)thieno[2,3-d]pyrimidine-2,4(1H,3H)-dione], for which the MIC in the assay with C. krusei (setting [8]) and in the assay with C. krusei (setting [9]) was 0.25 to 1 µg/mL (≈ 0.419 to 1.68 µM) in each case. In addition, the IC90 in assay [1] (setting [10]) was determined as 0.4 µg/mL (≈ 0.67 µM); in assay [1] (setting [11]) it was 0.4 µg/mL (≈ 0.67 µM); in assay [2] (setting [7]), 0.08 µg/mL (≈ 0.134 µM); in assay [2] (setting [12]), 0.08 µg/mL (≈ 0.134 µM).
Consider `COc1ccc(F)cc1[C@H](Cn1c(=O)n(C(C)(C)C(=O)NCC#N)c(=O)c2c(C)c(-n3nccn3)sc21)OC(C)C` [Compound I-52, (R)—N-(cyanomethyl)-2-(1-(2-(5-fluoro-2-methoxyphenyl)-2-isopropoxyethyl)-5-methyl-2,4-dioxo-6-(2H-1,2,3-triazol-2-yl)-1,4-dihydro-thieno[2,3-d]pyrimidin-3(2H)-yl)-2-methylpropanamide], for which the figures for the MIC with C. krusei (setting [3]) and in the assay on C. krusei (setting [4]) were 2.1 to 4 µg/mL (≈ 3.6 to 6.85 µM) and 0.25 to 1 µg/mL (≈ 0.428 to 1.71 µM), respectively. In addition, the IC90 in assay [1] (setting [5]), in assay [1] (setting [6]) and in assay [2] was 2 µg/mL (≈ 3.43 µM) throughout. Further, the “Concentration at 90% Inhibition Fm” value in assay [2] (setting [7]) is “B (compound concentration of 2.0 ppm at 90% inhibition of fungal pathogens)”.
Consider `Cc1c(-n2nccn2)sc2c1c(=O)n(C(C)(C)C(=O)NC(C)C)c(=O)n2C[C@H](OC(C)C)c1cc(F)ccc1OCCO` [Compound I-53, (R)-2-(1-(2-(5-fluoro-2-(2-hydroxyethoxy)phenyl)-2-isopropoxyethyl)-5-methyl-2,4-dioxo-6-(2H-1,2,3-triazol-2-yl)-1,4-dihydrothieno[2,3-d]pyrimidin-3(2H)-yl)-N-isopropyl-2-methylpropanamide], for which the MIC in the assay with C. krusei (setting [8]) is 0.25 to 1 µg/mL (≈ 0.405 to 1.62 µM); in the assay on C. krusei (setting [9]) it was 0.06 to 0.249 µg/mL (≈ 0.0973 to 0.404 µM). Also, the IC90 in assay [1] (setting [10]) came out at 0.4 µg/mL (≈ 0.649 µM); in assay [1] (setting [11]), 0.4 µg/mL (≈ 0.649 µM); in assay [2] (setting [7]), 0.08 µg/mL (≈ 0.13 µM); in assay [2] (setting [12]) it was 0.08 µg/mL (≈ 0.13 µM).
With `COCCOc1ccc(F)cc1[C@H](Cn1c(=O)n(C(C)(C)C(=O)NC(C)C)c(=O)c2c(C)c(-n3nccn3)sc21)OC(C)C` [Compound I-54, (R)-2-(1-(2-(5-fluoro-2-(2-methoxyethoxy)phenyl)-2-isopropoxyethyl)-5-methyl-2,4-dioxo-6-(2H-1,2,3-triazol-2-yl)-1,4-dihydrothieno[2,3-d]pyrimidin-3(2H)-yl)-N-isopropyl-2-methylpropanamide], the MIC in the assay with C. krusei (setting [8]) and in the assay on C. krusei (setting [9]) was 0.25 to 1 µg/mL (≈ 0.396 to 1.59 µM) throughout. Further, the IC90 in assay [1] (setting [10]) is 0.4 µg/mL (≈ 0.634 µM); in assay [1] (setting [11]) it was 0.4 µg/mL (≈ 0.634 µM); in assay [2] (setting [7]) it was 0.08 µg/mL (≈ 0.127 µM); in assay [2] (setting [12]), 0.08 µg/mL (≈ 0.127 µM).

Values taken from patent US10800791B2, “Triazole ACC inhibitors and uses thereof” (Gilead Apollo, LLC, priority 2015, dated 2020).
